Measurements reported in PubChem BioAssay (NCI).
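Briefly, cells in 96-well plates were exposed to five compound concentrations for 48 h, and endpoints were estimated by linear interpolation. At the GI50, growth is halved. TGI is the concentration that stops growth completely.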

What was measured:
Test in all cases: growth of human tumour cells (NCI), 48 h
[1] = tested on: NCI/ADR-RES ovarian
[2] = tested on: SK-OV-3 ovarian
[3] = tested on: HL-60(TB) leukemia
[4] = tested on: ACHN renal
[5] = tested on: SNB-19 CNS
[6] = tested on: HS 578T breast
[7] = tested on: U251 CNS
[8] = tested on: HCC-2998 colon
[9] = tested on: MCF7 breast
[10] = tested on: SNB-75 CNS
[11] = tested on: DU-145 prostate
[12] = tested on: A549 NSCLC
[13] = tested on: MALME-3M melanoma
[14] = tested on: OVCAR-5 ovarian
[15] = tested on: OVCAR-3 ovarian
[16] = tested on: HCT-15 colon
[17] = tested on: MOLT-4 leukemia
[18] = tested on: SF-295 CNS
[19] = tested on: SK-MEL-5 melanoma
[20] = tested on: NCI-H23 lung
[21] = tested on: PC-3 prostate
[22] = tested on: MDA-MB-231 breast
[23] = tested on: COLO 205 colon
[24] = tested on: NCI-H226 lung
[25] = tested on: RXF 393 renal
[26] = tested on: HOP-62 NSCLC
[27] = tested on: SW-620 colon
[28] = tested on: MDA-MB-435
[29] = tested on: 786-0 renal
[30] = tested on: BT-549 breast
[31] = tested on: T-47D breast
[32] = tested on: RPMI-8226 leukemia
[33] = tested on: KM12 colon
[34] = tested on: SF-268 CNS
[35] = tested on: CAKI-1 renal
[36] = tested on: UACC-257 melanoma
[37] = tested on: HT29 colon
[38] = tested on: TK-10 renal
[39] = tested on: SK-MEL-28 melanoma
[40] = tested on: A498 renal
[41] = tested on: NCI-H460 lung
[42] = tested on: OVCAR-4 ovarian
[43] = tested on: NCI-H522 lung
[44] = tested on: LOX IMVI melanoma
[45] = tested on: IGROV1 ovarian
[46] = tested on: SK-MEL-2 melanoma
[47] = tested on: K-562 leukemia
[48] = tested on: UO-31 renal
[49] = tested on: SR leukemia
[50] = tested on: M14 melanoma
[51] = tested on: OVCAR-8 ovarian
[52] = tested on: HCT-116 colon
[53] = tested on: UACC-62 melanoma
[54] = tested on: EKVX NSCLC
[55] = tested on: SN12C renal
[56] = tested on: HOP-92 NSCLC
[57] = tested on: CCRF-CEM leukemia
[58] = tested on: SF-539 CNS

CC(C)(C)Nc1nc2c(OCCc3ccccc3)cccn2c1-c1ccccc1Cl
GI50 [1]: 6.4 µM | TGI [1]: 20.5 µM | GI50 [2]: 3.82 µM | TGI [2]: 16.9 µM | GI50 [3]: 2.42 µM | TGI [3]: 5.68 µM | GI50 [4]: 8.82 µM | TGI [4]: 21 µM | GI50 [5]: 3.35 µM | TGI [5]: 13.1 µM | GI50 [6]: 4.05 µM | TGI [6]: 21.4 µM | GI50 [7]: 3.14 µM | TGI [7]: 12.5 µM | GI50 [8]: 3.51 µM | TGI [8]: 12.5 µM | GI50 [9]: 3.35 µM | TGI [9]: 14.7 µM | GI50 [10]: 1.58 µM | TGI [10]: 13.9 µM | GI50 [11]: 7.9 µM | TGI [11]: 24.6 µM | GI50 [12]: 4.88 µM | TGI [12]: 27.1 µM | GI50 [13]: 2.23 µM | TGI [13]: 5.52 µM | GI50 [14]: 11.9 µM | TGI [14]: 24.7 µM | GI50 [15]: 2.93 µM | TGI [15]: 9.75 µM | GI50 [16]: 4.12 µM | TGI [16]: 15.9 µM | GI50 [17]: 3.63 µM | TGI [17]: 17 µM | GI50 [18]: 3.19 µM | TGI [18]: 12.6 µM | GI50 [19]: 2.01 µM | TGI [19]: 4.43 µM | GI50 [20]: 3.67 µM | TGI [20]: 13.8 µM | GI50 [21]: 3.37 µM | TGI [21]: 15.5 µM | GI50 [22]: 5.95 µM | TGI [22]: 19 µM | GI50 [23]: 3.49 µM | TGI [23]: 10.6 µM | GI50 [24]: 3.52 µM | TGI [24]: 16.6 µM | GI50 [25]: 9.26 µM | TGI [25]: 22.3 µM | GI50 [26]: 4.82 µM | TGI [26]: 18.9 µM | GI50 [27]: 4.91 µM | TGI [27]: 17.7 µM | GI50 [28]: 3.29 µM | TGI [28]: 11.2 µM | GI50 [29]: 4.84 µM | TGI [29]: 18.1 µM | GI50 [30]: 2.61 µM | TGI [30]: 10.2 µM | GI50 [31]: 2.35 µM | TGI [31]: 17.1 µM | GI50 [32]: 2.78 µM | TGI [32]: 7.5 µM | GI50 [33]: 3.58 µM | TGI [33]: 12.4 µM | GI50 [34]: 4.52 µM | TGI [34]: 18.8 µM | GI50 [35]: 5.89 µM | TGI [35]: 20.2 µM | GI50 [36]: 3.52 µM | TGI [36]: 13 µM | GI50 [37]: 4.62 µM | TGI [37]: 30.1 µM | GI50 [38]: 6.49 µM | TGI [38]: 20.4 µM | GI50 [39]: 3.45 µM | TGI [39]: 13.1 µM | GI50 [40]: 11.8 µM | TGI [40]: 24.3 µM | GI50 [41]: 3.76 µM | TGI [41]: 13.4 µM | GI50 [42]: 3.61 µM | TGI [42]: 14.9 µM | GI50 [43]: 3.75 µM | TGI [43]: 15.3 µM | GI50 [44]: 4.08 µM | TGI [44]: 15.8 µM | GI50 [45]: 5.05 µM | TGI [45]: 17.8 µM | GI50 [46]: 2.72 µM | TGI [46]: 8.33 µM | GI50 [47]: 3.25 µM | TGI [47]: 18.1 µM | GI50 [48]: 3.2 µM | TGI [48]: 16.8 µM | GI50 [49]: 3.89 µM | TGI [49]: 43.4 µM | GI50 [50]: 3.9 µM | TGI [50]: 15.3 µM | GI50 [51]: 4.36 µM | TGI [51]: 20 µM | GI50 [52]: 4.01 µM | TGI [52]: 15.3 µM | GI50 [53]: 2.22 µM | TGI [53]: 6.55 µM | GI50 [54]: 3.19 µM | TGI [54]: 12.8 µM | GI50 [55]: 3.03 µM | TGI [55]: 12.7 µM | GI50 [56]: 2.36 µM | TGI [56]: 7.93 µM | GI50 [57]: 3.56 µM | TGI [57]: 16 µM | GI50 [58]: 10.7 µM | TGI [58]: 22.5 µM
